Measurements published in patent publication US9206168B2, “(2-heteroarylamino) succinic acid derivatives” (Daiichi Sankyo Company, Limited, priority 2012, dated 2015).
Structures can show the parent of a compound that is named as a salt.

System: human liver cancer-derived cell line Hep3B
Assay: In vitro erythropoietin (EPO) induction activity in Hep3B cells (EPO ELISA of culture supernatant)
Type: cell-based
Conditions: test compound 12.5 μM, 32 hours at 37° C., multiple of the EPO concentration in the control (0.5% DMSO)
Protocol: In vitro erythropoietin (EPO) induction activity of test compounds was evaluated using human liver cancer-derived cell line Hep3B (ATCC, Manassas, Va.). Hep3B cells were cultured overnight at 37° C. in Dulbecco's modified Eagle's medium (DMEM) in the presence of 10% fetal bovine serum (FBS) (24-well plate, 1.0×10^5 cells/well). After replacing with fresh DMEM (+10% FBS) containing a test compound dissolved in 0.5% dimethyl sulfoxide (DMSO) (prepared to a concentration of 12.5 μM) or a solvent control (0.5% DMSO), the cells were cultured for 32 hours at 37° C. After recovering the culture supernatant, EPO concentration in the culture supernatant was quantified using human EPO ELISA kits (StemCell Technologies).
The EPO concentration using a compound of each example as a test compound was expressed as a multiple of the EPO concentration in the control.

Row | SMILES | fold induction at 12.5 µM
1 | O=C(O)CCC(=O)Nc1ncc(C(=O)NCc2cccc(-c3ccccc3)c2)c(O)n1 [Example 6, 4-({4-Hydroxy-5-[(3-phenylphenyl)methylcarbamoyl]pyrimidin-2-yl}amino)-4-oxobutanoic acid] | 3.7
2 | O=C(O)CCC(=O)Nc1ncc(C(=O)NCc2cccc(C3CCCC3)c2)c(O)n1 [Example 17, 4-({5-[(3-Cyclopentylphenyl)methylcarbamoyl]-4-hydroxypyrimidin-2-yl}amino)-4-oxobutanoic acid] | 4.4
3 | O=C(O)CCC(=O)Nc1ncc(C(=O)NCc2ccc(F)cc2F)c(O)n1 [Example 2, 4-({5-[(2,4-Difluorophenyl)methylcarbamoyl]-4-hydroxypyrimidin-2-yl}amino)-4-oxobutanoic acid] | 7.9
4 | O=C(O)CCC(=O)Nc1ncc(C(=O)NCc2ccc(Cl)cc2Cl)c(O)n1 [Example 1, 4-({5-[(2,4-Dichlorophenyl)methylcarbamoyl]-4-hydroxypyrimidin-2-yl}amino)-4-oxobutanoic acid] | 3.6
5 | O=C(O)CCC(=O)Nc1ncc(C(=O)NCc2cccc(F)c2)c(O)n1 [Example 12, 4-({5-[(3-Fluorophenyl)methylcarbamoyl]-4-hydroxypyrimidin-2-yl}amino)-4-oxobutanoic acid] | 7.2
6 | O=C(O)CCC(=O)Nc1ncc(C(=O)NCc2ccc(F)cc2Cl)c(O)n1 [Example 3, 4-({5-[(2-Chloro-4-fluorophenyl)methylcarbamoyl]-4-hydroxypyrimidin-2-yl}amino)-4-oxobutanoic acid] | 9.5
7 | COc1ccc(-c2ccc(C(C)(C)NC(=O)c3cnc(NC(=O)CCC(=O)O)nc3O)cn2)cc1 [Example 10, 4-{[4-Hydroxy-5-({1-[6-(4-methoxyphenyl)pyridin-3-yl]-1-methylethyl}carbamoyl)pyrimidin-2-yl]amino}-4-oxobutanoic acid trifluoroacetate] | 10
8 | O=C(O)CCC(=O)Nc1ncc(C(=O)NCc2ccc(F)c(F)c2)c(O)n1 [Example 13, 4-({5-[(3,4-Difluorophenyl)methylcarbamoyl]-4-hydroxypyrimidin-2-yl}amino)-4-oxobutanoic acid] | 13
9 | O=C(O)CCC(=O)Nc1ncc(C(=O)NCc2cccc(C(F)(F)F)c2)c(O)n1 [Example 11, 4-[(4-Hydroxy-5-{[3-(trifluoromethyl)phenyl]methylcarbamoyl}pyrimidin-2-yl)amino]-4-oxobutanoic acid] | 7.5
10 | Cc1cccc(CNC(=O)c2cnc(NC(=O)CCC(=O)O)nc2O)c1 [Example 14, 4-{[4-Hydroxy-5-(m-tolylmethylcarbamoyl)pyrimidin-2-yl]amino}-4-oxobutanoic acid] | 3
11 | O=C(O)CCC(=O)Nc1ncc(C(=O)NCc2ccc(F)c(-c3ccccc3)c2)c(O)n1 [Example 5, 4-({5-[(4-Fluoro-3-phenylphenyl)methylcarbamoyl]-4-hydroxypyrimidin-2-yl}amino)-4-oxobutanoic acid] | 6.3
12 | COc1ccc(C(NC(=O)c2cnc(NC(=O)CCC(=O)O)nc2O)C2CCOCC2)cn1 (stereo not drawn) [Example 9, 4-[(4-Hydroxy-5-{[(6-methoxypyridin-3-yl)(tetrahydro-2H-pyran-4-yl)methyl]carbamoyl}pyrimidin-2-yl)amino]-4-oxobutanoic acid trifluoroacetate] | 16
